Holding throughout (format): cell-based
Assay [1] concerns phospho-p90 RSK (RSK1 Thr359/Ser363) in A375 (Braf V600E) cells. Description: Phospho-p90 RSK ELISA using A375 (Braf V600E) cells. The following applies: Homo sapiens, A-375, 2 hours compound treatment, read-out: Cellular Phospho-p90RSK IC50.
Assay [2] deals with A375 cells. The experiment in a line: Tumor cell line proliferation assay (CellTiter Glo), A375. The conditions noted are these: Homo sapiens, A-375, 96 h, read-out: A375 (V599E) Cell Proliferation IC50.
In assay [3] the test system is H358 (Kras, G12C) cells. The experiment in a line: Tumor cell line proliferation assay (CellTiter Glo), H358. The conditions noted are these: Homo sapiens, NCI-H358, 96 hours.

Regarding `Cc1cc(-c2n[nH]c3cc4c(cc23)CN([C@H](CO)c2cccc(Cl)c2)C(=O)N4)ccn1` [Example 26], the results for the IC50 in assay [1], in assay [2] and in assay [3] were ≤ 250 nM, 250 to 1000 nM and > 1000 nM, respectively.
On the same counts, the results for `Cc1cc(-c2n[nH]c3cc4[nH]c(=O)n(Cc5ccccc5)c(=O)c4cc23)ccn1` [Example 27] are 250 to 1000 nM, > 1000 nM and > 1000 nM.
On the same counts, the results for `Cc1cc(-c2n[nH]c3cc4c(cc23)CN(Cc2ccc(F)cc2)C(=O)N4)ccn1` [Example 30] are ≤ 250 nM, 250 to 1000 nM and 250 to 1000 nM.
For the molecule `Cc1cc(-c2n[nH]c3cc4c(cc23)CN([C@@H]2CCCN(Cc3ccc(C)s3)C2)C(=O)N4)ccn1` [Example 245], the IC50 in assay [1] and in assay [2] was ≤ 250 nM throughout.
On to `Cc1cc(-c2n[nH]c3cc4c(cc23)CN([C@@H]2CCCN(Cc3csc(C)c3)C2)C(=O)N4)ccn1` [Example 251], for which the IC50 in assay [1] and in assay [2] was ≤ 250 nM in each case.
Consider `Cc1cc(-c2n[nH]c3cc4c(cc23)CN([C@@H]2CCCN(Cc3ccsc3)C2)C(=O)N4)ccn1` [Example 252], for which the IC50 in assay [1] and in assay [2] was ≤ 250 nM each time.
Consider `Cc1cc(-c2n[nH]c3cc4c(cc23)CN([C@@H]2CCCN(Cc3cccs3)C2)C(=O)N4)ccn1` [Example 254], for which the IC50 in assay [1] and in assay [2] was ≤ 250 nM in each case.
Take `Cc1cc(-c2n[nH]c3cc4c(cc23)CN([C@@H]2CCN(c3ccc(F)cn3)C2)C(=O)N4)ccn1` [Example 257]: the IC50 is 250 to 1000 nM in assay [1] and > 1000 nM in assay [2].
In the same order, the values of `Cc1cc(-c2n[nH]c3cc4c(cc23)CN([C@H]2CN(Cc3ccccc3)CC(F)(F)C2)C(=O)N4)ccn1` [Example 264] are ≤ 250 nM and ≤ 250 nM.
In the same order, the values of `Cc1cc(-c2n[nH]c3cc4c(cc23)CN([C@@H]2CCN(C(C)C(F)(F)F)C2)C(=O)N4)ccn1` (stereo partly shown) [Example 267] are ≤ 250 nM and ≤ 250 nM.
As to `C=C(c1ccccc1)c1cc2cc3c(-c4ccnc(C)c4)n[nH]c3cc2[nH]c1=O` [Example 269], the IC50 in assay [1] and in assay [2] was ≤ 250 nM in each case.
Turning to `COc1cc(-c2n[nH]c3cc4c(cc23)CN([C@@H]2CCCN(Cc3ccccc3)C2)C(=O)N4)ccn1` [Example 270], the IC50 in assay [1] and in assay [2] was ≤ 250 nM in each case.
`COc1cc(-c2n[nH]c3cc4c(cc23)CN([C@@H]2CCCN(Cc3ccc(F)cc3F)C2)C(=O)N4)ccn1` [Example 271]: the IC50 in assay [1] and in assay [2] was ≤ 250 nM each time.
Regarding `COc1ccc(-c2n[nH]c3cc4c(cc23)CN([C@@H]2CCCN(Cc3ccccc3)C2)C(=O)N4)cn1` [Example 272], the IC50 in assay [1] and in assay [2] was ≤ 250 nM throughout.
Consider `COc1ccc(-c2n[nH]c3cc4c(cc23)CN([C@@H]2CCCN(Cc3ccc(F)cc3F)C2)C(=O)N4)cn1` [Example 273], for which the IC50 in assay [1] and in assay [2] was ≤ 250 nM each time.
As to `Cc1ccc(-c2n[nH]c3cc4c(cc23)CN([C@@H]2CCCN(Cc3ccccc3)C2)C(=O)N4)cn1` [Example 275], the IC50 in assay [1] and in assay [2] was ≤ 250 nM each time.
Turning to `COc1ncc(-c2n[nH]c3cc4c(cc23)CN([C@@H]2CCCN(Cc3ccc(F)cc3F)C2)C(=O)N4)cn1` [Example 280], the IC50 in assay [1] and in assay [2] was ≤ 250 nM each time.
For `Cn1cc(-c2n[nH]c3cc4c(cc23)CN([C@@H]2CCCN(Cc3ccc(F)cc3F)C2)C(=O)N4)cn1` [Example 281], the IC50 in assay [1] and in assay [2] was ≤ 250 nM in each case.
`Cc1ccc(-c2n[nH]c3cc4c(cc23)CN([C@@H]2CCCN(Cc3ccc(F)cc3F)C2)C(=O)N4)cn1` [Example 284]: the IC50 in assay [1] and in assay [2] was ≤ 250 nM throughout.
As for `Cn1cc(-c2n[nH]c3cc4c(cc23)CN([C@@H]2CCCN(Cc3ccccc3)C2)C(=O)N4)cn1` [Example 285], the IC50 in assay [1] and in assay [2] was ≤ 250 nM in each case.
As for `Cc1cc(-c2n[nH]c3cc4c(cc23)CN([C@@H]2CCCN(Cc3sccc3F)C2)C(=O)N4)ccn1` [Example 291], the IC50 in assay [1] and in assay [2] was ≤ 250 nM throughout.
Turning to `Cc1ncc(-c2n[nH]c3cc4c(cc23)CN([C@@H]2CCCN(Cc3ccccc3)C2)C(=O)N4)cn1` [Example 292], the IC50 in assay [1] and in assay [2] was ≤ 250 nM in each case.
For `Cc1ncc(-c2n[nH]c3cc4c(cc23)CN([C@@H]2CCCN(Cc3ccc(F)cc3F)C2)C(=O)N4)cn1` [Example 293], the IC50 in assay [1] and in assay [2] was ≤ 250 nM each time.
In the case of `Cc1cc(-c2n[nH]c3cc4c(cc23)CN([C@H]2CCN(Cc3ccccc3)C2)C(=O)N4)ccn1` [Example 301], the IC50 in assay [1] was ≤ 250 nM; in assay [2] it was 250 to 1000 nM.
In the same order, the values of `CC(c1ccccc1)c1cc2cc3c(-c4ccnc(N5CCN(C)CC5)c4)n[nH]c3cc2[nH]c1=O` (stereo not shown) [Example 318] are ≤ 250 nM and ≤ 250 nM.
Consider `COc1ncc(-c2n[nH]c3cc4c(cc23)CN(C2CN(Cc3ccccc3)CC(F)(F)C2)C(=O)N4)cn1` (stereo not shown) [Example 320], for which the IC50 in assay [1] was ≤ 250 nM; in assay [2] it was 250 to 1000 nM.
On the same counts, the results for `CC(c1ccccc1)c1cc2cc3c(-c4ccnnc4)n[nH]c3cc2[nH]c1=O` (stereo not shown) [Example 323] are ≤ 250 nM and 250 to 1000 nM.
In the same order, the values of `CC(c1ccccc1)c1cc2cc3c(-c4ccc(N5CCOCC5)nc4)n[nH]c3cc2[nH]c1=O` (stereo not shown) [Example 324] are ≤ 250 nM and ≤ 250 nM.
For `CC(c1ccccc1)c1cc2cc3c(-c4ccnc(N5CCOCC5)c4)n[nH]c3cc2[nH]c1=O` (stereo not shown) [Example 325], the IC50 in assay [1] and in assay [2] was ≤ 250 nM in each case.
Regarding `CC(c1ccccc1)c1cc2cc3c(-c4ccncc4)n[nH]c3cc2[nH]c1=O` (stereo not shown) [Example 326], the IC50 in assay [1] and in assay [2] was ≤ 250 nM each time.
As for `Cc1cc(-c2n[nH]c3cc4[nH]c(=O)c(C(CO)c5ccccc5)cc4cc23)ccn1` (stereo not shown) [Example 328], the results for the IC50 in assay [1] and in assay [2] were ≤ 250 nM and 250 to 1000 nM, respectively.
On the same counts, the results for `CC(c1ccccc1)c1cc2cc3c(-c4cccnc4)n[nH]c3cc2[nH]c1=O` (stereo not shown) [Example 330] are ≤ 250 nM and 250 to 1000 nM.
In the same order, the values of `Cc1cc(-c2n[nH]c3cc4c(cc23)CN([C@@H]2CN(CC(F)(F)F)C[C@H]2C(F)(F)F)C(=O)N4)ccn1` [Example 331] are 250 to 1000 nM and 250 to 1000 nM.
On the same counts, the results for `Cc1cc(-c2n[nH]c3cc4[nH]c(=O)c(C5CCCN(Cc6ccccc6)C5)cc4cc23)ccn1` (stereo not shown) [Example 332] are ≤ 250 nM and ≤ 250 nM.
For the molecule `CC(c1ccccc1)c1cc2cc3c(-c4cnn(C)c4)n[nH]c3cc2[nH]c1=O` (stereo not shown) [Example 333], the IC50 in assay [1] and in assay [2] was ≤ 250 nM each time.
As to `CC(c1ccccc1)c1cc2cc3c(NC4CCOCC4)n[nH]c3cc2[nH]c1=O` (stereo not shown) [Example 338], the IC50 in assay [1] and in assay [2] was ≤ 250 nM in each case.
`C[C@H](c1ccccc1)c1cc2cc3c(NC4CCOCC4)n[nH]c3cc2[nH]c1=O` [Example 357]: the IC50 in assay [1] and in assay [2] was ≤ 250 nM each time.
As to `COc1ncc(-c2n[nH]c3cc4[nH]c(=O)c(C5CCCN(Cc6ccccc6)C5)cc4cc23)cn1` (stereo not shown) [Example 364], the IC50 in assay [1] and in assay [2] was ≤ 250 nM throughout.

Source of the values: patent publication US10301317B2, “Inhibitors of ERK and methods of use” (Kura Oncology, Inc., priority 2013, dated 2019).
